# In US20200163984A1, “USE OF ISOVALERYL SPIRAMYCIN I, II AND/OR III IN MANUFACTURING MEDICAMENT FOR TREATING AND/OR PREVENTING TUMOR, AND MEDICAMENT” (SHENYANG FUYANG PHARMACEUTICAL TECHNOLOGY CO., LTD., priority 2017, published 2020):
# Legend:
# [1] = system: human bladder cancer cell T-24; conditions: T-24, MTT
# Description: (§1) The purpose of the assay is to evaluate the in vitro cell proliferation inhibition or cytotoxic activity of a tested sample.
# (§2) Human breast cancer cells MCF-7 and MDA-MB-231, human hepatoma cells HepG2, human non-small cell lung cancer cells A549, human large cell lung cancer cells H460 and H1299, human renal clear cell adenocarcinoma cell 786-0, human renal cell adenocarcinoma cell 769-P, human glioma cell U251, human glioblastoma cell A172, human tissue lymphoma cell U937, human cervical cancer cell HeLa, human prostate cancer cell PC3, human pancreatic cancer cell PANC-1, human esophageal cancer cell TE-1, human gastric adenocarcinoma cell SGC7901, human colon cancer cell HT-29, human promyelocytic leukemia cell HL-60, human thyroid cancer cell TPC-1, and human bladder cancer cell T-24.
# (§3) The inhibition rate of the medicament on tumor cell growth is calculated according to the following formula:
# (§4) Tumor cell growth inhibition rate (%)=[A492 (negative control)−A492 (dosing group)]/A492 (negative control)×100%
# (§5) And the half-inhibitory concentration (IC50) of the sample is determined therefrom.
# [2] = system: human thyroid cancer cell TPC-1; conditions: TPC-1, MTT
# Description: as §1, §2, §3, §4, §5
# [3] = system: transplanted tumor of human esophageal cancer cell TE-1; experiment: TE-1 transplanted tumor in nude mice
# Protocol: (§6) Then cell concentration was adjusted to 1×10^7/ml with matrigel, then each nude mouse was inoculated subcutaneously with 0.2 ml of cells at its right armpit and recorded as the first day of inoculation. When the tumor grows to be greater than or equal to 100 mm^3, the mice were randomly divided into 11 groups with 6 mice in each group: a model group, a cyclophosphamide group, isovaleryl spiramycin I groups with doses of 25, 50 and 100 mg/kg, isovaleryl spiramycin II groups with doses of 25, 50 and 100 mg/kg, and isovaleryl spiramycin III groups with doses of 25, 50 and 100 mg/kg. Each group was continuously administered intragastrically for 30 days with a dose of 20 ml/kg. The mice were sacrificed the next day after drug withdrawal and the indicators were tested. The long diameter and short diameter of the tumor, and the body weight of each mouse were recorded every 3 days from drug administration to nude mouse sacrifice.
# (§7) The body weight of the nude mice and the long diameter (a) and short diameter (b) of the transplanted tumor were measured every 3 days, and the tumor volume (v), relative tumor volume (RTV) and relative tumor proliferation rate (T/C) are calculated respectively according to the following formulas, wherein V=a×b^2/2; RTV=V/V0 (V0 is the tumor volume before administration, V is the tumor volume before sacrifice), and T/C (%)=treatment group RTV/model control group RTV×100%.
# (§8) Each mouse was weighed and sacrificed. After the tumor was completely stripped off from the body of the mouse, the non-tumor tissues such as blood stains and fat were removed to weigh the tumor and calculate the tumor growth inhibition rate. The average tumor weight of each group of mice is used as an indicator of efficacy. Tumor growth inhibition rate (%)=(1−the average tumor weight of the treatment group/the average tumor weight of the model group)×100%.
# [4] = system: transplanted tumor of HT-29 cells; experiment: HT-29 transplanted tumor in nude mice; conditions: for Inhibition Rate (%) / Tumor Weight: HT-29 nude mice; for Tumor Volume (mm3) (d30): d 30
# Protocol: as §6, with “group:” for “group: a model group, a cyclophosphamide group,”
# as §7, §8
# [5] = TE-1, 12.5 mg/kg (low dose) i.g. 30 days
# [6] = TE-1, 25 mg/kg (medium dose) i.g. 30 days
# [7] = TE-1, 50 mg/kg (high dose) i.g. 30 days
# [8] = HT-29, high dose (100 mg/kg in method) i.g. 30 days
# [9] = HT-29, low dose (25 mg/kg in method) i.g. 30 days
# [10] = HT-29, medium dose (50 mg/kg in method) i.g. 30 days
compound,measurement,setting,value
"CCC(=O)O[C@@H]1CC(=O)O[C@H](C)C/C=C/C=C/[C@H](O[C@H]2CC[C@H](N(C)C)[C@@H](C)O2)[C@H](C)C[C@H](CC=O)[C@H](O[C@@H]2O[C@H](C)[C@@H](O[C@H]3C[C@@](C)(O)[C@@H](OC(=O)CC(C)C)[C@H](C)O3)[C@H](N(C)C)[C@H]2O)[C@H]1OC [Isovaleryl spiramycin III, isovaleryl spiramycin III]",IC50,[1],31.23 ± 1.47 µg/mL
same,IC50,[2],29.72 ± 4.02 µg/mL
same,Inhibition Rate (tumor growth inhibition rate),[3]; [5],22.64%
same,Relative Tumor Proliferation Rate (T/C),[3]; [5],66.52%
same,Relative Tumor Volume (RTV),[3]; [5],6.03 ± 5.27
same,Tumor Volume (d 1),[3]; [5],173.45 ± 63.55 mm3
same,Tumor Volume (d 30),[3]; [5],1254.78 ± 637.73 mm3
same,Tumor Weight,[3]; [5],1.21 ± 0.53 g
same,Inhibition Rate (tumor growth inhibition rate),[3]; [6],40.17%
same,Relative Tumor Proliferation Rate (T/C),[3]; [6],50.71%
same,Relative Tumor Volume (RTV),[3]; [6],5.02 ± 6.81
same,Tumor Volume (d 1),[3]; [6],206.72 ± 79.72 mm3
same,Tumor Volume (d 30),[3]; [6],1140.10 ± 819.08 mm3
same,Tumor Weight,[3]; [6],0.94 ± 0.39 g
same,Inhibition Rate (tumor growth inhibition rate),[3]; [7],65.46%
same,Relative Tumor Proliferation Rate (T/C),[3]; [7],30.72%
same,Relative Tumor Volume (RTV),[3]; [7],3.60 ± 1.29
same,Tumor Volume (d 1),[3]; [7],331.09 ± 208.02 mm3
same,Tumor Volume (d 30),[3]; [7],1106.23 ± 865.11 mm3
same,Tumor Weight,[3]; [7],0.54 ± 0.22 g
same,tumor volume and relative tumor volume compared with the model group,"[3]; TE-1, low, medium and high doses, P<0.05",significantly lower
same,mouse weight compared with the model group,"[3]; mouse, in vivo",no significant changes
same,Relative Tumor Proliferation Rate (T/C),[4]; [8],35.63%
same,tumor growth inhibition rate,[4]; [8],63.19%
same,Relative Tumor Proliferation Rate (T/C),[4]; [9],85.54%
same,tumor growth inhibition rate,[4]; [9],19.22%
same,tumor volume and relative tumor volume compared with the model group,"[4]; HT-29, low, medium and high doses, P<0.05",significantly lower
same,Relative Tumor Proliferation Rate (T/C),[4]; [10],53.48%
same,tumor growth inhibition rate,[4]; [10],41.35%
same,Inhibition Rate (%),[4]; 25 mg/kg,19.22%
same,Tumor Weight,[4]; 25 mg/kg,1.90 ± 0.39 g
same,Inhibition Rate (%),[4]; 50 mg/kg,41.35%
same,Tumor Weight,[4]; 50 mg/kg,1.38 ± 0.37 g
same,Inhibition Rate (%),[4]; 100 mg/kg,63.19%
same,Tumor Weight,[4]; 100 mg/kg,0.87 ± 0.34 g
same,Relative Tumor Proliferation Rate (T/C),[4]; dose 25 mg/kg,85.54%
same,Relative Tumor Volume (RTV),[4]; dose 25 mg/kg,12.32 ± 4.51
same,Tumor Volume (mm3) (d 1),[4]; dose 25 mg/kg,154.49 ± 33.07 mm3
same,Tumor Volume (mm3) (d30),[4]; dose 25 mg/kg,1803.16 ± 368.50 mm3
same,Relative Tumor Proliferation Rate (T/C),[4]; dose 50 mg/kg,53.48%
same,Relative Tumor Volume (RTV),[4]; dose 50 mg/kg,7.70 ± 1.65
same,Tumor Volume (mm3) (d 1),[4]; dose 50 mg/kg,161.76 ± 30.69 mm3
same,Tumor Volume (mm3) (d30),[4]; dose 50 mg/kg,1252.64 ± 404.06 mm3
same,Relative Tumor Proliferation Rate (T/C),[4]; dose 100 mg/kg,35.63%
same,Relative Tumor Volume (RTV),[4]; dose 100 mg/kg,5.13 ± 1.13
same,Tumor Volume (mm3) (d 1),[4]; dose 100 mg/kg,160.38 ± 38.86 mm3
same,Tumor Volume (mm3) (d30),[4]; dose 100 mg/kg,826.76 ± 259.70 mm3
same,mouse weight compared with the model group,"[4]; mouse, in vivo",no significant changes
same,Body Weight (g) (d1),"[4]; mouse, in vivo, 25 mg/kg",21.31 ± 1.23 g
same,Body Weight (g) (d30),"[4]; mouse, in vivo, 25 mg/kg",21.19 ± 1.52 g
same,Body Weight (g) (d1),"[4]; mouse, in vivo, 50 mg/kg",21.22 ± 1.24 g
same,Body Weight (g) (d30),"[4]; mouse, in vivo, 50 mg/kg",21.00 ± 0.98 g
same,Body Weight (g) (d1),"[4]; mouse, in vivo, 100 mg/kg",21.34 ± 1.78 g
same,Body Weight (g) (d30),"[4]; mouse, in vivo, 100 mg/kg",21.09 ± 1.43 g
